Measured values taken from ChEMBL document CHEMBL1201862, “PubChem BioAssay data set” (2004).
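All cell lines were grown in 96-well plates and treated with compound for 48 hours. GI50 is the concentration that inhibits growth by half.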 Active and inactive are the calls of the source. Cut-off read from the data, not from the text of the source: active = GI50 up to about 1.1 µM and inactive = higher.

Experiments:
Test in all cases: NCI anticancer screen, dose series, 48 h
ACHN = system: ACHN
BT-549 = system: BT-549
CCRF-CEM = system: CCRF-CEM
COLO 205 = system: COLO 205
HCT-116 = system: HCT-116
HOP-62 = system: HOP-62
HOP-92 = system: HOP-92
IGROV-1 = system: IGROV-1
NCI-H23 = system: NCI-H23
NCI/ADR-RES = system: NCI/ADR-RES
OVCAR-5 = system: OVCAR-5
OVCAR-8 = system: OVCAR-8
PC-3 = system: PC-3
RXF 393 = system: RXF 393
SK-MEL-28 = system: SK-MEL-28
SK-MEL-2 = system: SK-MEL-2
SNB-75 = system: SNB-75
K562 = system: K562
LOX IMVI = system: LOX IMVI
SR = system: SR

Measured: GI50

CC1=C(O)C(=O)C[C@]2(C)[C@H]3CC=C4[C@@H]5CC(C)(C)CC[C@@H]5C(=O)[C@H](O)[C@@]4(C)[C@]3(C)CC[C@@H]12
inactive: ACHN 41.4 µM | BT-549 > 50 µM | CCRF-CEM > 50 µM | COLO 205 > 50 µM | HCT-116 > 50 µM | HOP-62 30.7 µM | HOP-92 7.36 µM | IGROV-1 21.8 µM | NCI-H23 > 50 µM | NCI/ADR-RES > 50 µM | OVCAR-5 > 50 µM | OVCAR-8 22.6 µM | PC-3 16.7 µM | RXF 393 10 µM | SK-MEL-28 > 50 µM | SK-MEL-2 37.4 µM | SNB-75 17.3 µM

COc1ccc(OCC(=N/NC(=O)c2ccncc2)/N=C/c2cccnc2)cc1
inactive: ACHN 72.8 µM | BT-549 > 100 µM | CCRF-CEM > 100 µM | COLO 205 64.6 µM | HCT-116 > 100 µM | HOP-62 72.1 µM | IGROV-1 > 100 µM | K562 44.7 µM | LOX IMVI 89.7 µM | NCI-H23 > 100 µM | NCI/ADR-RES > 100 µM | OVCAR-5 > 100 µM | OVCAR-8 > 100 µM | PC-3 > 100 µM | RXF 393 35.8 µM | SK-MEL-28 94.8 µM | SK-MEL-2 > 100 µM | SNB-75 24.2 µM

CC(C)(C)OC(=O)NCCCC(=O)NC1(c2cc3ccccc3s2)CCCCC1
inactive: ACHN 22.8 µM | BT-549 15.1 µM | CCRF-CEM 11.4 µM | COLO 205 13.8 µM | HCT-116 14 µM | HOP-62 21.4 µM | HOP-92 12.9 µM | IGROV-1 18 µM | K562 19.5 µM | LOX IMVI 16 µM | NCI-H23 27.2 µM | NCI/ADR-RES 16.7 µM | OVCAR-8 19 µM | RXF 393 9.42 µM | SK-MEL-28 14.1 µM | SNB-75 5.11 µM | SR 12.6 µM

N#Cc1c2c(c(Nc3cccc(C(F)(F)F)c3)n3c1nc1ccccc13)CCCC2
inactive: ACHN 27.3 µM | BT-549 30.1 µM | COLO 205 > 100 µM | HCT-116 22.3 µM | HOP-62 16 µM | HOP-92 3.99 µM | LOX IMVI 14.8 µM | NCI-H23 20.9 µM | NCI/ADR-RES 14.8 µM | OVCAR-5 18.9 µM | OVCAR-8 15.1 µM | RXF 393 22.7 µM | SK-MEL-28 18.2 µM | SNB-75 10.6 µM

CCOC(=O)C(NC(=O)c1ccccc1)(N1CCN(c2cc3c(cc2F)c(=O)c(C(=O)O)cn3C2CC2)CC1)C(F)(F)F (centres undefined)
inactive: ACHN 23.9 µM | BT-549 21.8 µM | CCRF-CEM 3.37 µM | COLO 205 17.1 µM | HCT-116 17.1 µM | HOP-62 31 µM | HOP-92 19.8 µM | IGROV-1 30.4 µM | K562 20.2 µM | NCI-H23 15.1 µM | OVCAR-5 20.4 µM | OVCAR-8 31.3 µM | PC-3 23.6 µM | RXF 393 19.5 µM | SK-MEL-28 28 µM | SK-MEL-2 18.7 µM | SNB-75 24 µM | SR 20.5 µM

CCOC(=O)CCC(NC(=O)c1ccc(OCc2ccc3nc(OC)c(OC)nc3c2)cc1)C(=O)OCC (centres undefined)
inactive: ACHN 32.9 µM | BT-549 43.3 µM | CCRF-CEM 24 µM | COLO 205 16.7 µM | HCT-116 50.7 µM | HOP-62 > 100 µM | HOP-92 40.9 µM | IGROV-1 55.8 µM | K562 22.3 µM | LOX IMVI 80 µM | NCI-H23 > 100 µM | OVCAR-5 > 100 µM | OVCAR-8 > 100 µM | PC-3 36.4 µM | RXF 393 25.9 µM | SK-MEL-28 44.6 µM | SK-MEL-2 23.3 µM | SNB-75 52.6 µM | SR 45.1 µM

C=C1OC(c2ccccc2NC)=NC12CCCCC2
inactive: ACHN > 100 µM | BT-549 > 100 µM | CCRF-CEM > 100 µM | COLO 205 > 100 µM | HCT-116 > 100 µM | HOP-62 > 100 µM | HOP-92 > 100 µM | IGROV-1 > 100 µM | K562 > 100 µM | LOX IMVI > 100 µM | NCI-H23 > 100 µM | NCI/ADR-RES > 100 µM | OVCAR-5 > 100 µM | OVCAR-8 > 100 µM | PC-3 > 100 µM | RXF 393 > 100 µM | SK-MEL-28 > 100 µM

O=C1c2ccccc2C2(c3ccc(Cl)cc3)N[C@@H]3CCCC[C@@H]3N12 (some centres undefined)
inactive: ACHN > 100 µM | BT-549 > 100 µM | CCRF-CEM > 100 µM | COLO 205 > 100 µM | HCT-116 > 100 µM | HOP-62 > 100 µM | HOP-92 > 100 µM | IGROV-1 > 100 µM | K562 > 100 µM | LOX IMVI > 100 µM | NCI-H23 > 100 µM | OVCAR-5 > 100 µM | OVCAR-8 > 100 µM | PC-3 > 100 µM | RXF 393 > 100 µM | SK-MEL-28 > 100 µM | SK-MEL-2 > 100 µM | SNB-75 > 100 µM | SR > 100 µM

COc1ccccc1N1C(=O)/C(=C\c2cc(OC)c(OC)c(OC)c2)SC1c1ccccc1 (centres undefined)
inactive: ACHN 44.4 µM | BT-549 84.9 µM | CCRF-CEM 6.76 µM | COLO 205 24.1 µM | HCT-116 18.5 µM | HOP-62 27.8 µM | HOP-92 22.7 µM | K562 4.33 µM | LOX IMVI 26.9 µM | NCI-H23 31.4 µM | NCI/ADR-RES 43 µM | OVCAR-5 > 100 µM | OVCAR-8 42 µM | RXF 393 14.5 µM | SK-MEL-28 45.4 µM | SK-MEL-2 68.4 µM | SR 13.3 µM

N#Cc1c2ccc([N+](=O)[O-])cc2c(=O)n2c1sc1ccc(C(F)(F)F)cc12
inactive: ACHN > 100 µM | BT-549 > 100 µM | COLO 205 > 100 µM | HCT-116 > 100 µM | HOP-62 > 100 µM | HOP-92 > 100 µM | IGROV-1 > 100 µM | K562 > 100 µM | LOX IMVI > 100 µM | NCI-H23 > 100 µM | NCI/ADR-RES > 100 µM | OVCAR-5 > 100 µM | OVCAR-8 > 100 µM | RXF 393 > 100 µM | SK-MEL-28 > 100 µM | SNB-75 > 100 µM

O=C(c1ccco1)N1CCCN(C(=O)c2ccco2)C1=S
inactive: ACHN > 100 µM | BT-549 > 100 µM | CCRF-CEM > 100 µM | COLO 205 > 100 µM | HCT-116 > 100 µM | HOP-62 72.1 µM | IGROV-1 41.6 µM | K562 > 100 µM | LOX IMVI > 100 µM | NCI-H23 > 100 µM | NCI/ADR-RES > 100 µM | OVCAR-5 > 100 µM | OVCAR-8 > 100 µM | PC-3 24.4 µM | RXF 393 39.6 µM | SK-MEL-28 > 100 µM | SK-MEL-2 46.5 µM
